# Experimental data: ChEMBL document CHEMBL3763146 (J Med Chem, 2016)
# What was measured:
# [1] = Induction of phospholidosis in human HepG2 cells incubated overnight by […] in presence of fluorescent labeled phospholipid probe NBD-PE; assay type: cell-based; settings: read-out: A50
# [2] = Distribution coefficient, logD of the compound at pH 7.4; assay type: physicochemical; settings: octanol/water
# [3] = target: T1, Beta-3 adrenergic receptor (Homo sapiens, UniProt P13945); test: Agonist activity at human beta3 adrenergic receptor expressed in CHO cells assessed as accumulation of cAMP after 30 mins by TR-FRET assay relative to (R)-(-)-isoproterenol; assay type: functional, cell-based
# [4] = Stability in human plasma assessed as parent compound remaining at 24 hrs by LC-MS analysis; assay type: ADME, cell-free; settings: read-out: Stability
# [5] = Stability in rat plasma assessed as parent compound remaining at 24 hrs by LC-MS analysis; assay type: ADME, cell-free; settings: read-out: Stability
# [6] = Stability in dog plasma assessed as parent compound remaining at 24 hrs by LC-MS analysis; assay type: ADME, cell-free, Canis lupus familiaris; settings: read-out: Stability
# [7] = Stability in rhesus monkey plasma assessed as parent compound remaining at 24 hrs by LC-MS analysis; assay type: ADME, cell-free, Macaca mulatta; settings: read-out: Stability
# [8] = target: Sodium-dependent serotonin transporter (Homo sapiens, UniProt P31645); test: Inhibition of human SERT expressed in HEK293 cells preincubated for 30 mins followed by fluorescent substrate addition measured after 30 mins by plate reader analysis; assay type: cell-based
# [9] = target: Sodium channel protein type 2 subunit alpha (Homo sapiens, UniProt Q99250); test: Inhibition of human Nav1.2 channel expressed in Xenopus oocytes by two-intracellular microelectrode voltage clamp method; assay type: cell-based
# [10] = target: Voltage-dependent L-type calcium channel subunit alpha-1C (Homo sapiens, UniProt Q13936); test: Displacement of [3H]-diltiazem from human Cav1.2 channel
# [11] = target: Voltage-gated inwardly rectifying potassium channel KCNH2 (Homo sapiens, UniProt Q12809); test: Binding affinity to human ERG channel
# [12] = target: T1, Beta-3 adrenergic receptor; test: Agonist activity at human beta3 adrenergic receptor expressed in CHO cells assessed as accumulation of cAMP after 30 mins by TR-FRET assay; assay type: functional, cell-based
# Target sequence in this assay (P13945 whole entry): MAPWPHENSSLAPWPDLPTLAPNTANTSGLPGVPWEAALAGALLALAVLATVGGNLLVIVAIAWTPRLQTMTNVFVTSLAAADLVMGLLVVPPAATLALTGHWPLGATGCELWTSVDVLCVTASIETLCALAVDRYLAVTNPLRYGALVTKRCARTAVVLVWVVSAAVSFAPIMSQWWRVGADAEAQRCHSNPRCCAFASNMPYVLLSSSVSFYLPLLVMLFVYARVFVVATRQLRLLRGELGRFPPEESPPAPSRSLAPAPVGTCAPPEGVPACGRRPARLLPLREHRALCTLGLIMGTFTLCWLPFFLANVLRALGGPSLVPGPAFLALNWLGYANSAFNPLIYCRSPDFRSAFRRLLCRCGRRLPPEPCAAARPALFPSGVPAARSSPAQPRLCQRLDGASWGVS
# [13] = Plasma clearance in rat at 1 mg/kg, iv or 2 mg/kg, po; assay type: ADME, organism-based
# [14] = Half life in rat at 1 mg/kg, iv or 2 mg/kg, po; assay type: ADME, organism-based; settings: in vivo
# Rattus norvegicus = test: Dose normalized total AUC in rat at 2 mg/kg, po; assay type: ADME, organism-based; settings: in vivo, BLD = below limit of detection
# [15] = Oral bioavailability in rat at 2 mg/kg; assay type: ADME, organism-based; settings: in vivo
# [16] = target: Beta-2 adrenergic receptor (Homo sapiens, UniProt P07550)
# Description: Displacement of [125]I-cyanopindolol from human recombinant beta2 adrenergic receptor after 1 hr by scintillation counting method
# [17] = target: Beta-1 adrenergic receptor (Homo sapiens, UniProt P08588)
# Description: Displacement of [125]I-cyanopindolol from recombinant human beta1 adrenergic receptor after 1 hr by scintillation counting method
# Cytochrome P450 3A4 = Cytochrome P450 3A4 (Homo sapiens, UniProt P08684); test: Inhibition of CYP3A4 in human liver microsomes assessed as testosterone 6beta-hydroxylation; assay type: ADME
# Cytochrome P450 2D6 = Cytochrome P450 2D6 (Homo sapiens, UniProt P10635); test: Inhibition of CYP2D6 in human liver microsomes assessed as dextraomethorphan O-demethylation; assay type: ADME
# Cytochrome P450 2C9 = Cytochrome P450 2C9 (Homo sapiens, UniProt P11712); test: Inhibition of CYP2C9 in human liver microsomes assessed as diclofenac alpha'-hydroxylation; assay type: ADME
# Sequence of Voltage-dependent L-type calcium channel subunit alpha-1C (Q13936 whole entry): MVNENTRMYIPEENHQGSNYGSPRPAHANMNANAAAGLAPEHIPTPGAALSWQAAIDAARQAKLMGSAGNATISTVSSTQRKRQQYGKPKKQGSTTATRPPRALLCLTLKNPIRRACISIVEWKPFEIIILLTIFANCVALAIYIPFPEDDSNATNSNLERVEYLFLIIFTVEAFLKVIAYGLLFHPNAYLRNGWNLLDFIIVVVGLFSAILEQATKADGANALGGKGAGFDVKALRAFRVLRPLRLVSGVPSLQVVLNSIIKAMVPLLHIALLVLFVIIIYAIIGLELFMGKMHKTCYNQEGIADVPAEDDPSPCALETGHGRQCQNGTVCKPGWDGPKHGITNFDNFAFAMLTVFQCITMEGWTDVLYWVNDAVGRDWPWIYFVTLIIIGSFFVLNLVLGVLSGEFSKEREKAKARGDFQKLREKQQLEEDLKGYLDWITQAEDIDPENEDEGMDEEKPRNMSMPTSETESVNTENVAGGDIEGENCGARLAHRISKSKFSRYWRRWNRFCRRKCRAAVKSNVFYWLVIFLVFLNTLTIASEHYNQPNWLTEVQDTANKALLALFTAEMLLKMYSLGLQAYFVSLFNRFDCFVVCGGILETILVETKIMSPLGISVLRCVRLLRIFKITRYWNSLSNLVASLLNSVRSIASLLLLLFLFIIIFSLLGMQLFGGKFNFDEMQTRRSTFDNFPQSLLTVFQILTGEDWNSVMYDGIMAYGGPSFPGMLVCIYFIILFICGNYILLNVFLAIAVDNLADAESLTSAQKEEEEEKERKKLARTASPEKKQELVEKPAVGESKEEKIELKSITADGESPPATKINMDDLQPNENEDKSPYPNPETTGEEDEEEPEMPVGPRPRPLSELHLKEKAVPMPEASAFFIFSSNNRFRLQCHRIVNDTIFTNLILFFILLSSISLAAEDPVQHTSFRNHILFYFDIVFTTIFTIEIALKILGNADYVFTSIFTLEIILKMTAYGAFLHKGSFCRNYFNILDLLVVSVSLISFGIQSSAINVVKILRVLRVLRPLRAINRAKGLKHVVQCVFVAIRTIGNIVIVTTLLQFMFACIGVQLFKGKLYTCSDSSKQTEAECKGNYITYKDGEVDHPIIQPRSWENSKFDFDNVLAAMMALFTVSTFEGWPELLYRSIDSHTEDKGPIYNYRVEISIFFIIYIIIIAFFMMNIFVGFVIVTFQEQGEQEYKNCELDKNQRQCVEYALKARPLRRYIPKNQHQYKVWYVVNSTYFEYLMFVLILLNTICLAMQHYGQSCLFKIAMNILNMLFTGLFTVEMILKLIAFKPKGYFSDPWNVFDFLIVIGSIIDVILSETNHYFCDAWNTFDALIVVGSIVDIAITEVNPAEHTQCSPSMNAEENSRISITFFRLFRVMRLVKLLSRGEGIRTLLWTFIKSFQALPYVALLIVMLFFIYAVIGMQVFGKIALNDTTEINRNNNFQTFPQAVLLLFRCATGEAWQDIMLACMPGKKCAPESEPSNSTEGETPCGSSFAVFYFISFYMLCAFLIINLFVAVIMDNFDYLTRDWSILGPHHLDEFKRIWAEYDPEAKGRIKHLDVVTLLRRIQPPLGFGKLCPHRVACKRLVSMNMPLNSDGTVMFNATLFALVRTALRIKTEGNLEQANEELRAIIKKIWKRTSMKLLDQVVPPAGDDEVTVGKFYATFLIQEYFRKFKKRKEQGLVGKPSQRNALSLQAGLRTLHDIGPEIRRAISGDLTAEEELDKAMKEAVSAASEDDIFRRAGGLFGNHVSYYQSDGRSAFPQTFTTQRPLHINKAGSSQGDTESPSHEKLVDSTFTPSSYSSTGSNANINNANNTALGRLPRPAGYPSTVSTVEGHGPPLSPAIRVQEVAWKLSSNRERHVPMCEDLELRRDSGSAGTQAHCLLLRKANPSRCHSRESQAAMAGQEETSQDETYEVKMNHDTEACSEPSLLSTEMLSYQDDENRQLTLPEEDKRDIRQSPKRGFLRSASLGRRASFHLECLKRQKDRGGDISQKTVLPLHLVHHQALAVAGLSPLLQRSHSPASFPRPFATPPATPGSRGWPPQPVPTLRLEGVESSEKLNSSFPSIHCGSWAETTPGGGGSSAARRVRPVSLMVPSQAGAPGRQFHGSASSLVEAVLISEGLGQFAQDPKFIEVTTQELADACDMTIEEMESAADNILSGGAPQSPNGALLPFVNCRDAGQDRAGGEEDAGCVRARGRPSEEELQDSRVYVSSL
# Sequence of Sodium channel protein type 2 subunit alpha (Q99250 whole entry, looked up): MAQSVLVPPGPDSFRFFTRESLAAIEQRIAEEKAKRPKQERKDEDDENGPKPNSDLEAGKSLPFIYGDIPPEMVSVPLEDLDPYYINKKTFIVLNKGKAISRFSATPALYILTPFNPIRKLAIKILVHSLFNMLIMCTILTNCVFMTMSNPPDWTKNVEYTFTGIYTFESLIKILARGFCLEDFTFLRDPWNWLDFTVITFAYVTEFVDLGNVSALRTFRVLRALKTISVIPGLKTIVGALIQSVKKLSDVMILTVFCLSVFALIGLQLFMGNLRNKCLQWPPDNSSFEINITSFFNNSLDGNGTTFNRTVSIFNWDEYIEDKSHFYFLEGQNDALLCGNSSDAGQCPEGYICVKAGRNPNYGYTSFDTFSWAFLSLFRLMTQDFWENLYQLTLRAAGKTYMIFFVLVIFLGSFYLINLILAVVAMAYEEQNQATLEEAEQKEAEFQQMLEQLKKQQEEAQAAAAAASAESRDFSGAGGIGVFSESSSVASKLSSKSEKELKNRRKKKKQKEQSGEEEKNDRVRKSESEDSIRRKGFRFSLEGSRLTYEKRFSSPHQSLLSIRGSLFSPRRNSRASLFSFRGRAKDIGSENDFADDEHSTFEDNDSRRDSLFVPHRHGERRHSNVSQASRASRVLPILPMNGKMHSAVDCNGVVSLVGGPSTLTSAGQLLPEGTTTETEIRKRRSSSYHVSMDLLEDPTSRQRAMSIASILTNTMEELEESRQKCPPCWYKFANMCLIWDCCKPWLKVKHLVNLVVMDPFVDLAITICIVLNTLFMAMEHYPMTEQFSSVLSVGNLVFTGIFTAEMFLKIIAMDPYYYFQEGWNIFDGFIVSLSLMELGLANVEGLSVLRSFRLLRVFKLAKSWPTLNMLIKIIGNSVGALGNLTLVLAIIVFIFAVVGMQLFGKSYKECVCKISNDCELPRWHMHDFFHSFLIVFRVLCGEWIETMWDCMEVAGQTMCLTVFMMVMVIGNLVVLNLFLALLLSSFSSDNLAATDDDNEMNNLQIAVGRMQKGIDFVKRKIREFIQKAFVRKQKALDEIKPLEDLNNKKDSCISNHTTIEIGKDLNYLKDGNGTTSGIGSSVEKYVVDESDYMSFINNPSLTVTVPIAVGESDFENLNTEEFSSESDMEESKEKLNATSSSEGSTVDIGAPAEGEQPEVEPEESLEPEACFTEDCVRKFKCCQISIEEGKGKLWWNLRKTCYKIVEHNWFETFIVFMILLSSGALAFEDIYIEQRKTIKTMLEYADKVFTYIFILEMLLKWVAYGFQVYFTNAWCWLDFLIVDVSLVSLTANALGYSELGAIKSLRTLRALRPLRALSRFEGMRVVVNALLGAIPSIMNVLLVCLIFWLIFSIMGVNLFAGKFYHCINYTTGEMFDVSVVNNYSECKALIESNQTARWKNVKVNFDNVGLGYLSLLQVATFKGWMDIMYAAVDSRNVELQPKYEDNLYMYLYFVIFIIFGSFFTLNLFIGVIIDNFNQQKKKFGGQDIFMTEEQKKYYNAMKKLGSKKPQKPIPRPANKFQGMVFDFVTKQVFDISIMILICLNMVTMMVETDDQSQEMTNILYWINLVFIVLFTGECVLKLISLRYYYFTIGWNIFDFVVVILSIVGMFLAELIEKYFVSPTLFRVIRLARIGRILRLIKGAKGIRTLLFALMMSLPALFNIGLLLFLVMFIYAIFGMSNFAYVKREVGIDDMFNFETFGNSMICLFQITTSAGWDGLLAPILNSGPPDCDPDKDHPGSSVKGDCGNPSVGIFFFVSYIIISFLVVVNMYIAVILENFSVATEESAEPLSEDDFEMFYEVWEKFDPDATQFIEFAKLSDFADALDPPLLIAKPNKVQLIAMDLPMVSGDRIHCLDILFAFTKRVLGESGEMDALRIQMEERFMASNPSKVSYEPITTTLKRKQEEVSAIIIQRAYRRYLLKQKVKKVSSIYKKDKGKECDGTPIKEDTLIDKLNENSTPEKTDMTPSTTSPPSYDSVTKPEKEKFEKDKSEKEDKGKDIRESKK
# Sequence of Beta-1 adrenergic receptor (P08588 whole entry): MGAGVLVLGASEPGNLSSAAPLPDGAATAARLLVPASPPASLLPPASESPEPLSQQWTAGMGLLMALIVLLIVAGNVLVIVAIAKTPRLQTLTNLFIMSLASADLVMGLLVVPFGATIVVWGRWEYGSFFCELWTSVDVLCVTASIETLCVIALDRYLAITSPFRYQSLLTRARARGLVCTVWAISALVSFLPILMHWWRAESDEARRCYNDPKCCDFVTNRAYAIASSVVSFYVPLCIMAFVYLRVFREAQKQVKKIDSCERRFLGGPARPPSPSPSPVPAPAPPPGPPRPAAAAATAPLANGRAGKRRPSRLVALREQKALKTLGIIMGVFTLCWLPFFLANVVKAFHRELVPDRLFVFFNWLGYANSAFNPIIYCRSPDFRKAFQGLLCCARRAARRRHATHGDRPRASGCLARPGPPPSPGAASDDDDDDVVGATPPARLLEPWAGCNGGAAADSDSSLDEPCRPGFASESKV
Structure (SMILES),AC50 [1] [µM],logD [2],max activation [3] [%],IC50 [8] [µM],IC50 [9] [µM],IC50 [10] [µM],IC50 [11] [µM],EC50 [12] [µM],IC50 [16] [µM],IC50 [17] [µM],further results
O=C(Nc1ccc(C[C@@H]2CC[C@H]([C@H](O)c3cccnc3)N2)cc1)[C@@H]1CCc2ccnn21,94,0.9,84,,,,,,,,remaining at 24 h [4]: 0%; remaining at 24 h [5]: 97%; remaining at 24 h [6]: 100%; remaining at 24 h [7]: 87%
C[C@@H](C(=O)Nc1ccc(C[C@@H]2CC[C@H]([C@H](O)c3cccnc3)N2)cc1)n1ncccc1=O,> 100,,87,0.8,> 30,> 30,> 30,0.0026,> 20,> 20,clearance [13]: 12 mL/min/kg; half-life [14]: 8 h; AUC/dose (Rattus norvegicus): BLD; bioavailability [15]: < 1%
O=C(Cn1cnc2ccccc2c1=O)Nc1ccc(C[C@@H]2CC[C@H]([C@H](O)c3ccccc3)N2)cc1,8.6,2,108,0.2,> 30,13,,0.0017,2.2,> 20,IC50 (Cytochrome P450 3A4): 96 µM; IC50 (Cytochrome P450 2D6): 31 µM; IC50 (Cytochrome P450 2C9): > 100 µM
O=C(Cn1cnccc1=O)Nc1ccc(C[C@@H]2CC[C@H]([C@H](O)c3ccccc3)N2)cc1,> 100,,91,0.7,> 30,> 30,> 30,0.0039,> 20,> 20,
O=C(Cn1ccccc1=O)Nc1ccc(C[C@@H]2CC[C@H]([C@H](O)c3ccccc3)N2)cc1,> 100,,97,1.1,> 30,> 30,> 30,0.0043,> 20,> 20,
